For 1 compound, Ki results are on record in patent US8008301B2, “Histamine H3 receptor agents, preparation and therapeutic uses” (Eli Lilly and Company, priority 2004, dated 2011).

The target of this experiment is T1, H3R membranes (H3R8-expressing HEK293 cell line) (Homo sapiens, UniProt Q9Y5N1).
T1 construct: expressed in transfected cells; membranes
The experiment can be described thus: [35S] GTPγ[S] binding assay, antagonist activity in the presence of agonist R(-)alpha methylhistamine. The class given is biochemical. To be noted: inhibition of [35S]GTPγS binding to H3R membranes in presence of agonist. The protocol:
Membranes isolated as described in (Preparation of Histamine Receptor Subtype Membranes) were used in a [35S]GTPχS functional assay. Binding of [35S]GTPχS to membranes indicates agonist activity. Compounds of the invention of Formula I or Formula II were tested for their ability to inhibit binding in the presence of agonists. Alternately, the same transfected cell lines were used for a cAMP assay wherein H3R agonists inhibited forskolin-activated synthesis of cAMP. Compounds of Formula I or Formula II were tested for their ability to permit forskolin-stimulated cAMP synthesis in the presence of agonist.
Antagonist activity of selected compounds was tested for inhibition of [35S] GTP γ [S] binding to H3R membranes in the presence of agonists. Assays were run at room temperature in 20 mM HEPES, 100 mM NaCl, 5 mM MgCl2 and 10 uM GDP at pH 7.4 in a final volume of 200 ul in 96-well Costar plates. Membranes isolated from H3R8-expressing HEK293 cell line (20 ug/well) and GDP were added to each well in a volume of 50 μl assay buffer. Antagonist was then added to the wells in a volume of 50 μl assay buffer and incubated for 15 minutes at room temperature. […] Plates were counted in Wallac Trilux 1450 Microbeta scintillation counter for 1 minute. […]

T1 sequence (Q9Y5N1 whole entry): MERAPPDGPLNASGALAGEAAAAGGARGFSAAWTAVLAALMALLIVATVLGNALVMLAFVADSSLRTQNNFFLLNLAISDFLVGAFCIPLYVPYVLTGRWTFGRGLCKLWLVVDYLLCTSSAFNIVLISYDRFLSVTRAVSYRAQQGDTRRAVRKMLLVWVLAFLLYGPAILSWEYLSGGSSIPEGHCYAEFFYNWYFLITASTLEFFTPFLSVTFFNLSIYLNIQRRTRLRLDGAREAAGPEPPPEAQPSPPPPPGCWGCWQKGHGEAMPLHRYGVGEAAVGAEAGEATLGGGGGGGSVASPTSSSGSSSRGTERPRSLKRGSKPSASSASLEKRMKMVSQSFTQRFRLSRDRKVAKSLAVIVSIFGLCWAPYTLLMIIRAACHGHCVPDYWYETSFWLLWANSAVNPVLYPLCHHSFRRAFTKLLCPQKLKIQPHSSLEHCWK

Turning to `O=C(c1ccc(-c2ccccn2)cc1)N1CCC[C@H]1CN1CCCC1`, the Ki was 49 nM.
